Experimental data taken from DBAASP.
≈ marks a conversion by molar mass, not a printed value.

Key:
Assay in all cases: ≥ marks a high value that may be exact or a test limit, other limits are often not marked, values filed in µg/mL are converted to µM
[1] = test system: Klebsiella pneumoniae MTCC 7407
[2] = test system: Klebsiella oxytoca MTCC 2275
[3] = test system: Proteus vulgaris MTCC 1771
[4] = test system: Acinetobacter baumannii MTCC 9829
[5] = test system: Salmonella enterica MTCC 9844
[6] = test system: Haemophilus influenzae MTCC 621
[7] = test system: Salmonella enterica subsp. enterica serovar Typhimurium ATCC 14028
[8] = test system: Proteus mirabilis MTCC 3158
[9] = test system: Escherichia coli K12 MG1655
[10] = test system: Vibrio cholerae MTCC 3904
[11] = test system: Pluralibacter gergoviae MTCC 3826
[12] = test system: Staphylococcus haemolyticus MTCC 3383
[13] = test system: Citrobacter koseri MTCC 1657
[14] = test system: Alcaligenes faecalis MTCC 1937
[15] = test system: Citrobacter freundii MTCC 1658
[16] = test system: Pseudomonas aeruginosa MTCC 3542
[17] = test system: Bordetella bronchiseptica MTCC 6837
[18] = test system: Corynebacterium glutamicum MTCC 2679
[19] = test system: Shigella boydii MTCC 11947
[20] = test system: Alkalihalobacillus alcalophilus MTCC 860
[21] = test system: Staphylococcus aureus MTCC 3160
[22] = test system: Enterococcus faecalis MTCC 439
[23] = test system: Stenotrophomonas maltophilia MTCC 1890
[24] = test system: Klebsiella aerogenes MTCC 111
[25] = test system: Shigella flexneri MTCC 1457
[26] = test system: Pseudomonas aeruginosa Ps4
[27] = test system: Candida albicans ATCC 90028
Candida albicans SC5314 = test system: Candida albicans SC5314
Candida krusei ATCC 6258 = test system: Candida krusei ATCC 6258
[28] = test system: Candida parapsilosis ATCC 22019

## CSCC[C@H](NC(=O)[C@H](CCCCN)NC(=O)[C@H](CCCCN)NC(=O)[C@H](CC(C)C)NC(=O)[C@H](C)N)C(=O)N[C@@H](CC(C)C)C(=O)N[C@@H](CCCN=C(N)N)C(=O)N[C@@H](CC(C)C)C(=O)N[C@@H](C)C(=O)N[C@@H](CCCCN)C(=O)N[C@@H](CCCN=C(N)N)C(=O)N[C@@H](CC(C)C)C(=O)N[C@@H](CO)C(=O)O [ALKKMLRLAKRLS]
[1]
  MIC: ≥ 83.8 µM
[2]
  MIC: ≥ 83.8 µM
[3]
  MIC: ≥ 83.8 µM
[4]
  MIC: ≥ 83.8 µM
[5]
  MIC: 20.9 µM (≈ 32 µg/mL)
[6]
  MIC: ≥ 41.9 µM
[7]
  MIC: > 83.8 µM
[8]
  MIC: ≥ 83.8 µM
[9]
  MIC: ≥ 41.9 µM
[10]
  MIC: ≥ 83.8 µM
[11]
  MIC: ≥ 83.8 µM
[12]
  MIC: ≥ 83.8 µM
[13]
  MIC: ≥ 41.9 µM
[14]
  MIC: ≥ 83.8 µM
[15]
  MIC: ≥ 83.8 µM
[16]
  MIC: ≥ 83.8 µM
[17]
  MIC: 5.24 µM (≈ 8 µg/mL)
[18]
  MIC: 10.5 µM (≈ 16 µg/mL)
[19]
  MIC: ≥ 41.9 µM
[20]
  MIC: ≥ 83.8 µM
[21]
  MIC: ≥ 83.8 µM
[22]
  MIC: ≥ 83.8 µM
[23]
  MIC: ≥ 83.8 µM
[24]
  MIC: ≥ 83.8 µM
[25]
  MIC: 20.9 µM (≈ 32 µg/mL)

## CC[C@H](C)[C@H](NC(=O)[C@@H](N)CCC(=O)O)C(=O)N[C@@H](CC(C)C)C(=O)N[C@@H](CO)C(=O)N[C@@H](CCCCN)C(=O)N[C@@H](C)C(=O)N[C@@H](CC(C)C)C(=O)N[C@@H](CO)C(=O)N[C@@H](C)C(=O)N[C@@H](CC(C)C)C(=O)N[C@@H](CO)C(=O)N1CCC[C@H]1C(=O)N[C@@H](CC(C)C)C(=O)N[C@@H](C)C(=O)N[C@@H](CC(N)=O)C(=O)O [EILSKALSALSPLAN]
[1]
  MIC: ≥ 83.8 µM
[2]
  MIC: ≥ 83.8 µM
[3]
  MIC: ≥ 83.8 µM
[4]
  MIC: ≥ 83.8 µM
[5]
  MIC: ≥ 83.8 µM
[6]
  MIC: ≥ 83.8 µM
[7]
  MIC: > 83.8 µM
[8]
  MIC: ≥ 83.8 µM
[9]
  MIC: ≥ 83.8 µM
[10]
  MIC: ≥ 83.8 µM
[11]
  MIC: ≥ 83.8 µM
[12]
  MIC: ≥ 83.8 µM
[13]
  MIC: ≥ 83.8 µM
[14]
  MIC: ≥ 83.8 µM
[15]
  MIC: ≥ 83.8 µM
[16]
  MIC: ≥ 83.8 µM
[17]
  MIC: ≥ 83.8 µM
[18]
  MIC: ≥ 83.8 µM
[19]
  MIC: ≥ 83.8 µM
[20]
  MIC: ≥ 83.8 µM
[21]
  MIC: ≥ 83.8 µM
[22]
  MIC: ≥ 83.8 µM
[23]
  MIC: ≥ 83.8 µM
[24]
  MIC: ≥ 83.8 µM
[25]
  MIC: ≥ 83.8 µM

## CC[C@H](C)[C@H](NC(=O)[C@H](CCCCN)NC(=O)[C@H](CCCN=C(N)N)NC(=O)[C@H](CCC(N)=O)NC(=O)[C@H](Cc1c[nH]c2ccccc12)NC(=O)[C@@H](N)Cc1ccccc1)C(=O)N[C@@H](CCCN=C(N)N)C(=O)N[C@@H](CCCCN)C(=O)N[C@H](C(=O)N[C@@H](CCCCN)C(=O)N[C@@H](CCCCN)C(N)=O)C(C)C [FWQRKIRKVKK]
[26]
  MIC: ≥ 165 µM

## CC[C@H](C)[C@H](NC(=O)[C@@H]1CCCN1C(=O)[C@H](CCCN=C(N)N)NC(=O)[C@H](CCC(N)=O)NC(=O)[C@H](Cc1c[nH]c2ccccc12)NC(=O)[C@@H](N)Cc1ccccc1)C(=O)N[C@@H](CCCN=C(N)N)C(=O)N[C@@H](CCCCN)C(=O)N[C@H](C(=O)N[C@@H](CCCN=C(N)N)C(N)=O)C(C)C [FWQRPIRKVR]
[26]
  MIC: ≥ 180 µM

## CC[C@H](C)[C@H](NC(=O)CN)C(=O)N[C@@H](Cc1c[nH]c2ccccc12)C(=O)N[C@@H](CCCCN)C(=O)N[C@@H](CCCCN)C(=O)N[C@@H](Cc1c[nH]c2ccccc12)C(=O)N[C@H](C(=O)N[C@@H](CCCCN)C(=O)N[C@@H](CCCCN)C(=O)N[C@H](C(=O)N[C@H](C(=O)N[C@@H](CC(N)=O)C(=O)N[C@H](C(=O)N[C@@H](CC(C)C)C(=O)N[C@@H](CCCCN)C(=O)N[C@@H](CC(N)=O)C(=O)N[C@@H](CC(C)C)C(=O)N[C@@H](Cc1ccccc1)C(N)=O)C(C)C)C(C)C)C(C)C)[C@@H](C)CC [GIWKKWIKKVVNVLKNLF]
[27]
  MIC: 14.5 µM (≈ 32 µg/mL)
Candida albicans SC5314
  MIC: 7.23 µM (≈ 16 µg/mL)
Candida krusei ATCC 6258
  MIC: 14.5 µM (≈ 32 µg/mL)
[28]
  MIC: 7.23 µM (≈ 16 µg/mL)

## CC[C@H](C)[C@H](NC(=O)CN)C(=O)N[C@@H](Cc1c[nH]c2ccccc12)C(=O)N[C@@H](CCCCN)C(=O)N[C@@H](CCCCN)C(=O)N[C@@H](Cc1c[nH]c2ccccc12)C(=O)N[C@H](C(=O)N[C@@H](CCCCN)C(=O)N[C@@H](CCCCN)C(=O)N[C@@H](Cc1c[nH]c2ccccc12)C(=O)N[C@@H](CC(C)C)C(=O)N[C@@H](CCCCN)C(=O)N[C@@H](CCCCN)C(=O)N[C@@H](CC(C)C)C(=O)N[C@@H](CC(C)C)C(=O)N[C@@H](CCCCN)C(=O)N[C@@H](CCCCN)C(=O)N[C@@H](CC(C)C)C(=O)N[C@@H](Cc1c[nH]c2ccccc12)C(=O)N[C@@H](CCCCN)C(=O)N[C@@H](CCCCN)C(=O)NCC(=O)O)[C@@H](C)CC [GIWKKWIKKWLKKLLKKLWKKG]
[27]
  MIC: 22.6 µM (≈ 64 µg/mL)
Candida albicans SC5314
  MIC: 11.3 µM (≈ 32 µg/mL)
Candida krusei ATCC 6258
  MIC: 22.6 µM (≈ 64 µg/mL)
[28]
  MIC: 22.6 µM (≈ 64 µg/mL)

## CC[C@H](C)[C@H](NC(=O)CNC(=O)[C@H](CCCCN)NC(=O)[C@H](C)NC(=O)[C@H](C)NC(=O)[C@H](CCCCN)NC(=O)[C@H](Cc1cnc[nH]1)NC(=O)[C@@H](NC(=O)[C@H](C)NC(=O)[C@H](CCCCN)NC(=O)[C@H](Cc1c[nH]c2ccccc12)NC(=O)CN)[C@@H](C)CC)C(=O)N[C@@H](Cc1cnc[nH]1)C(=O)N[C@H](C(=O)N[C@@H](Cc1ccc(O)cc1)C(=O)N[C@H](C(=O)N[C@@H](CC(N)=O)C(=O)O)C(C)C)[C@@H](C)O [GWKAIHKAAKGIHTYVN]
[1]
  MIC: ≥ 67.6 µM
[2]
  MIC: ≥ 67.6 µM
[3]
  MIC: ≥ 67.6 µM
[4]
  MIC: ≥ 67.6 µM
[5]
  MIC: ≥ 67.6 µM
[6]
  MIC: ≥ 33.8 µM
[7]
  MIC: > 67.6 µM
[8]
  MIC: ≥ 67.6 µM
[9]
  MIC: ≥ 67.6 µM
[10]
  MIC: ≥ 67.6 µM
[11]
  MIC: ≥ 67.6 µM
[12]
  MIC: ≥ 67.6 µM
[13]
  MIC: ≥ 67.6 µM
[14]
  MIC: ≥ 67.6 µM
[15]
  MIC: ≥ 67.6 µM
[16]
  MIC: ≥ 67.6 µM
[17]
  MIC: ≥ 67.6 µM
[18]
  MIC: ≥ 33.8 µM
[19]
  MIC: ≥ 67.6 µM
[20]
  MIC: ≥ 67.6 µM
[21]
  MIC: ≥ 67.6 µM
[22]
  MIC: ≥ 67.6 µM
[23]
  MIC: ≥ 67.6 µM
[24]
  MIC: ≥ 67.6 µM
[25]
  MIC: ≥ 67.6 µM

## CC[C@H](C)[C@H](NC(=O)[C@@H](NC(=O)[C@H](C)NC(=O)[C@H](Cc1cnc[nH]1)NC(=O)[C@H](CC(C)C)NC(=O)[C@H](CCCN=C(N)N)NC(=O)[C@H](C)NC(=O)[C@H](Cc1ccc(O)cc1)NC(=O)[C@@H](NC(=O)[C@@H](N)CCCCN)C(C)C)C(C)C)C(=O)N[C@@H](CCCCN)C(=O)N[C@@H](CCCN=C(N)N)C(=O)N[C@@H](CC(C)C)C(=O)N[C@@H](Cc1cnc[nH]1)C(=O)N[C@@H](CCCN=C(N)N)C(=O)N[C@@H](CCCN=C(N)N)C(=O)N[C@@H](CC(C)C)C(=O)N[C@@H](Cc1cnc[nH]1)C(=O)O [KVYARLHAVIKRLHRRLH]
[1]
  MIC: ≥ 56.5 µM
[2]
  MIC: 3.53 µM (≈ 8 µg/mL)
[3]
  MIC: ≥ 56.5 µM
[4]
  MIC: 14.1 µM (≈ 32 µg/mL)
[5]
  MIC: 14.1 µM (≈ 32 µg/mL)
[6]
  MIC: 1.76 µM (≈ 4 µg/mL)
[7]
  MIC: 14.1 µM (≈ 32 µg/mL)
[8]
  MIC: ≥ 56.5 µM
[9]
  MIC: 7.06 µM (≈ 16 µg/mL)
[10]
  MIC: ≥ 56.5 µM
[11]
  MIC: ≥ 56.5 µM
[12]
  MIC: 1.76 µM (≈ 4 µg/mL)
[13]
  MIC: 14.1 µM (≈ 32 µg/mL)
[14]
  MIC: ≥ 56.5 µM
[15]
  MIC: 14.1 µM (≈ 32 µg/mL)
[16]
  MIC: ≥ 56.5 µM
[17]
  MIC: 1.76 µM (≈ 4 µg/mL)
[18]
  MIC: 0.882 µM (≈ 2 µg/mL)
[19]
  MIC: 3.53 µM (≈ 8 µg/mL)
[20]
  MIC: 14.1 µM (≈ 32 µg/mL)
[21]
  MIC: ≥ 56.5 µM
[22]
  MIC: ≥ 56.5 µM
[23]
  MIC: ≥ 56.5 µM
[24]
  MIC: ≥ 56.5 µM
[25]
  MIC: 1.76 µM (≈ 4 µg/mL)
